Assay results: patent US6737383B1, “Herbicidal oxadiazolidines” (priority 1999, dated 2004)

How the values were obtained:
morningglory = experiment: Test B pre/postemergence morningglory; assay type: in vivo, Ipomoea hederacea
Text: (§1) Seeds of bedstraw (Galium aparine), blackgrass (Alopecurus myosuroides), surinam grass (Brachiaria decumbens), cocklebur (Xanthium strumarium), corn (Zea mays), crabgrass (Digitaria sanguinalis), giant foxtail (Setaria faberii), morningglory (Ipomoea hederacea), pigweed (Amaranthus retroflexus), rape (Brassica napus), soybean (Glycine max), sugar beet (Beta vulgaris), velvetleaf (Abutilon theophrasti), wheat (Triticum aestivum), wild oat (Avena fatua) and purple nutsedge (Cyperus rotundus) tubers were planted and treated preemnergence with test chemicals formulated in a non-phytotoxic solvent mixture which included a surfactant.
(§2) At the same time, these crop and weed species were also treated with postemergence applications of test chemicals formulated in the same manner. Plants ranged in height from 2 to 18 cm (1- to 4-leaf stage) for postemergence treatments. Plant species in the flood test consisted of rice (Oryza sativa), smallflower flatsedge (Cyperus difformis), duck salad (Heteranthera limosa) and bamyardgrass (Echinochloa crus-galli) grown to the 2-leaf stage for testing. Treated plants and controls were maintained in a greenhouse for twelve to sixteen days, after which all species were compared to controls and visually evaluated. Plant response ratings, summarized in Table B, are based on a scale of 0 to 10 where 0 is no effect and 10 is complete control. A dash (−) response means no test result.

cocklebur = experiment: Test B pre/postemergence cocklebur; assay type: in vivo, Xanthium strumarium
Text: as §1, §2

sugar beet = experiment: Test B pre/postemergence sugar beet; assay type: in vivo, Beta vulgaris
Text: as §1, §2

bedstraw = experiment: Test B pre/postemergence bedstraw; assay type: in vivo, Galium aparine
Text: as §1, §2

wild oat = experiment: Test B pre/postemergence wild oat; assay type: in vivo, Avena fatua
Text: as §1, §2

giant foxtail = experiment: Test B pre/postemergence giant foxtail; assay type: in vivo, Setaria faberii
Text: as §1, §2

crabgrass = experiment: Test B pre/postemergence crabgrass; assay type: in vivo, Digitaria sanguinalis
Text: as §1, §2

wheat = experiment: Test B pre/postemergence wheat; assay type: in vivo, Triticum aestivum
Text: as §1, §2

purple nutsedge = experiment: Test B pre/postemergence purple nutsedge; assay type: in vivo, Cyperus rotundus
Text: as §1, §2

blackgrass = experiment: Test B pre/postemergence blackgrass; assay type: in vivo, Alopecurus myosuroides
Text: as §1, §2

rape = experiment: Test B pre/postemergence rape; assay type: in vivo, Brassica napus
Text: as §1, §2

surinam grass = experiment: Test B pre/postemergence surinam grass; assay type: in vivo, Brachiaria decumbens
Text: as §1, §2

pigweed = experiment: Test B pre/postemergence pigweed; assay type: in vivo, Amaranthus retroflexus
Text: as §1, §2

velvetleaf = experiment: Test B pre/postemergence velvetleaf; assay type: in vivo, Abutilon theophrasti
Text: as §1, §2

corn = experiment: Test B pre/postemergence corn; assay type: in vivo, Zea mays
Text: as §1, §2

soybean = experiment: Test B pre/postemergence soybean; assay type: in vivo, Glycine max
Text: as §1, §2

[1] = Postemergence, Rate 62 g/ha, scale of 0 to 10, 0 is no effect, 10 is complete control
[2] = Postemergence, Rate 125 g/ha, scale 0 to 10, 0 is no effect, 10 is complete control
[3] = Postemergence, Rate 500 g/ha, scale 0 to 10, 0 is no effect, 10 is complete control
[4] = Preemergence, Rate 62 g/ha, scale 0 to 10 (0 no effect, 10 complete control)
[5] = Preemergence, Rate 125 g/ha, scale 0 to 10, 0 is no effect, 10 is complete control
[6] = Preemergence, Rate 500 g/ha, scale of 0 to 10 where 0 is no effect and 10 is complete control
[7] = Rate 250 g/ha, Postemergence, scale of 0 to 10 where 0 is no effect and 10 is complete control
[8] = Preemergence, Rate 62 g/ha, scale of 0 to 10 where 0 is no effect and 10 is complete control
[9] = Preemergence, Rate 250 g/ha, scale 0 to 10 (0 no effect, 10 complete control)

Structure (SMILES): COC(=O)CCCn1c(=O)on(C(=O)N(c2ccc(Cl)cc2)C(C)C)c1=O [Compound 543]
- Morningglory plant response rating (morningglory; [1]): 1
- Morningglory plant response rating (morningglory; [2]): 2
- Plant response rating, Morningglory (morningglory; [3]): 7
- Morningglory plant response rating (morningglory; [4]): 0
- Morningglory plant response rating (morningglory; [5]): 0
- Morningglory plant response rating (0 to 10 scale) (morningglory; Preemergence, Rate 250 g/ha): 0
- Morningglory plant response rating (morningglory; [6]): 0
- Plant response rating, Morningglory (morningglory; [7]): 4
- Cocklebur plant response rating (cocklebur; [1]): 0
- Cocklebur plant response rating (cocklebur; [2]): 0
- Plant response rating, Cocklebur (cocklebur; [3]): 1
- Cocklebur plant response rating (cocklebur; [5]): 0
- Cocklebur plant response rating (0 to 10 scale) (cocklebur; Preemergence, Rate 250 g/ha): 0
- Cocklebur plant response rating (cocklebur; [6]): 10
- Plant response rating, Cocklebur (cocklebur; [7]): 0
- Sugarbeets plant response rating (sugar beet; [1]): 0
- Sugarbeets plant response rating (sugar beet; [2]): 0
- Plant response rating, Sugarbeets (sugar beet; [3]): 3
- Sugarbeets plant response rating (sugar beet; [4]): 4
- Sugarbeets plant response rating (sugar beet; [5]): 5
- Sugarbeets plant response rating (0 to 10 scale) (sugar beet; Preemergence, Rate 250 g/ha): 6
- Plant response rating, Sugarbeets (sugar beet; [7]): 2
- Bedstraw plant response rating (bedstraw; [1]): 0
- Bedstraw plant response rating (bedstraw; [2]): 0
- Plant response rating, Bedstraw (bedstraw; [3]): 2
- Bedstraw plant response rating (bedstraw; [5]): 0
- Bedstraw plant response rating (0 to 10 scale) (bedstraw; Preemergence, Rate 250 g/ha): 0
- Bedstraw plant response rating (bedstraw; [6]): 0
- Wild oats plant response rating (wild oat; [1]): 0
- Wild oats plant response rating (wild oat; [2]): 0
- Plant response rating, Wild oats (wild oat; [3]): 3
- Wild oats plant response rating (wild oat; [4]): 0
- Wild oats plant response rating (wild oat; [5]): 0
- Wild oats plant response rating (0 to 10 scale) (wild oat; Preemergence, Rate 250 g/ha): 0
- Wild oats plant response rating (wild oat; [6]): 0
- Plant response rating, Wild oats (wild oat; [7]): 0
- Giant foxtail plant response rating (giant foxtail; [1]): 0
- Giant foxtail plant response rating (giant foxtail; [2]): 0
- Plant response rating, Giant foxtail (giant foxtail; [3]): 3
- Giant foxtail plant response rating (giant foxtail; [4]): 3
- Giant foxtail plant response rating (giant foxtail; [5]): 3
- Giant foxtail plant response rating (0 to 10 scale) (giant foxtail; Preemergence, Rate 250 g/ha): 9
- Giant foxtail plant response rating (giant foxtail; [6]): 9
- Plant response rating, Giant foxtail (giant foxtail; [7]): 0
- Crabgrass plant response rating (crabgrass; [1]): 0
- Plant response rating, Crabgrass (crabgrass; [3]): 7
- Crabgrass plant response rating (crabgrass; [4]): 4
- Crabgrass plant response rating (crabgrass; [5]): 4
- Crabgrass plant response rating (0 to 10 scale) (crabgrass; Preemergence, Rate 250 g/ha): 6
- Plant response rating, Crabgrass (crabgrass; [7]): 3
- Wheat plant response rating (wheat; [1]): 0
- Wheat plant response rating (wheat; [2]): 0
- Plant response rating, Wheat (wheat; [3]): 0
- Wheat plant response rating (wheat; [4]): 0
- Wheat plant response rating (wheat; [5]): 0
- Wheat plant response rating (0 to 10 scale) (wheat; Preemergence, Rate 250 g/ha): 0
- Wheat plant response rating (wheat; [6]): 0
- Plant response rating, Wheat (wheat; [7]): 0
- Nutsedge plant response rating (purple nutsedge; [1]): 0
- Nutsedge plant response rating (purple nutsedge; [2]): 0
- Plant response rating, Nutsedge (purple nutsedge; [3]): 0
- Nutsedge plant response rating (purple nutsedge; [4]): 0
- Nutsedge plant response rating (purple nutsedge; [5]): 0
- Nutsedge plant response rating (0 to 10 scale) (purple nutsedge; Preemergence, Rate 250 g/ha): 0
- Nutsedge plant response rating (purple nutsedge; [6]): 8
- Plant response rating, Nutsedge (purple nutsedge; [7]): 0
- Blackgrass plant response rating (blackgrass; [1]): 0
- Blackgrass plant response rating (blackgrass; [2]): 0
- Plant response rating, Blackgrass (blackgrass; [3]): 2
- Blackgrass plant response rating (blackgrass; [4]): 0
- Blackgrass plant response rating (blackgrass; [5]): 0
- Blackgrass plant response rating (0 to 10 scale) (blackgrass; Preemergence, Rate 250 g/ha): 0
- Blackgrass plant response rating (blackgrass; [6]): 2
- Plant response rating, Blackgrass (blackgrass; [7]): 0
- Rape plant response rating (rape; [1]): 0
- Rape plant response rating (rape; [2]): 0
- Plant response rating, Rape (rape; [3]): 0
- Rape plant response rating (rape; [4]): 0
- Rape plant response rating (rape; [5]): 0
- Rape plant response rating (0 to 10 scale) (rape; Preemergence, Rate 250 g/ha): 0
- Rape plant response rating (rape; [6]): 0
- Plant response rating, Rape (rape; [7]): 0
- B. signalgrass plant response rating (surinam grass; [1]): 0
- B. signalgrass plant response rating (surinam grass; [2]): 0
- Plant response rating, B. signalgrass (surinam grass; [3]): 3
- B. signalgrass plant response rating (surinam grass; [4]): 0
- B. signalgrass plant response rating (surinam grass; [5]): 4
- B. signalgrass plant response rating (0 to 10 scale, 0 is no effect, 10 is complete control) (surinam grass; Preemergence, Rate 250 g/ha): 4
- B. signalgrass plant response rating (surinam grass; [6]): 6
- Plant response rating, B. signalgrass (surinam grass; [7]): 3
- Redroot pigweed plant response rating (pigweed; [1]): 0
- Redroot pigweed plant response rating (pigweed; [2]): 0
- Plant response rating, Redroot pigweed (pigweed; [3]): 0
- Redroot pigweed plant response rating (pigweed; [4]): 7
- Redroot pigweed plant response rating (pigweed; [5]): 7
- Redroot pigweed plant response rating (0 to 10 scale) (pigweed; Preemergence, Rate 250 g/ha): 9
- Plant response rating, Redroot pigweed (pigweed; [7]): 0
- Velvetleaf plant response rating (velvetleaf; [1]): 0
- Velvetleaf plant response rating (velvetleaf; [2]): 0
- Plant response rating, Velvetleaf (velvetleaf; [3]): 3
- Velvetleaf plant response rating (velvetleaf; [4]): 0
- Velvetleaf plant response rating (velvetleaf; [5]): 0
- Velvetleaf plant response rating (0 to 10 scale) (velvetleaf; Preemergence, Rate 250 g/ha): 0
- Velvetleaf plant response rating (velvetleaf; [6]): 0
- Plant response rating, Velvetleaf (velvetleaf; [7]): 0
- Corn plant response rating (corn; [1]): 0
- Corn plant response rating (corn; [2]): 0
- Plant response rating, Corn (corn; [3]): 0
- Corn plant response rating (corn; [4]): 0
- Corn plant response rating (corn; [5]): 0
- Corn plant response rating (0 to 10 scale) (corn; Preemergence, Rate 250 g/ha): 0
- Corn plant response rating (corn; [6]): 0
- Plant response rating, Corn (corn; [7]): 0
- Soybean plant response rating (soybean; [1]): 0
- Soybean plant response rating (soybean; [2]): 2
- Plant response rating, Soybean (soybean; [3]): 2
- Soybean plant response rating (soybean; [4]): 0
- Soybean plant response rating (soybean; [5]): 0
- Soybean plant response rating (0 to 10 scale) (soybean; Preemergence, Rate 250 g/ha): 2
- Soybean plant response rating (soybean; [6]): 2
- Plant response rating, Soybean (soybean; [7]): 2

Structure (SMILES): CC(C)N(C(=O)n1oc(=O)n(C(C)C2CC2)c1=O)c1ccc(Cl)cc1 (centres unmarked) [Compound 700]
- Morningglory plant response rating (morningglory; [8]): 0
- Cocklebur plant response rating (cocklebur; [8]): 0
- Plant response rating, Cocklebur (cocklebur; [9]): 0
- Plant response rating, Cocklebur (cocklebur; [6]): 0
- Sugarbeets plant response rating (sugar beet; [8]): 0
- Bedstraw plant response rating (bedstraw; [8]): 0
- Plant response rating, Bedstraw (bedstraw; [9]): 0
- Plant response rating, Bedstraw (bedstraw; [6]): 8
- Wild oats plant response rating (wild oat; [8]): 4
- Giant foxtail plant response rating (giant foxtail; [8]): 10
- Crabgrass plant response rating (crabgrass; [8]): 10
- Plant response rating, Crabgrass (crabgrass; [9]): 10
- Wheat plant response rating (wheat; [8]): 0
- Blackgrass plant response rating (blackgrass; [8]): 4
- Plant response rating, Blackgrass (blackgrass; [9]): 8
- Plant response rating, Blackgrass (blackgrass; [6]): 10
- Rape plant response rating (rape; [8]): 0
- B. signalgrass plant response rating (surinam grass; [8]): 4
- Plant response rating, B. signalgrass (surinam grass; [9]): 8
- Plant response rating, B. signalgrass (surinam grass; [6]): 10
- Redroot pigweed plant response rating (pigweed; [8]): 0
- Velvetleaf plant response rating (velvetleaf; [8]): 0
- Corn plant response rating (corn; [8]): 0
- Plant response rating, Corn (corn; [9]): 3
- Soybean plant response rating (soybean; [8]): 0
